In the supplement of paper PMC10307832:

Experiments:
Assay in all cases: relative viability (nuclei count vs DMSO), 5 days (fraction); higher = more cells survive
[1] = system: NCI-H661
Method in brief: (§1)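 Relative viability equals treated-well nuclei counts divided by vehicle-well nuclei counts. Counts came from 4× images of lung cancer cell lines grown in 1536-well plates for 5 days after pin-tool dosing on the day after seeding. Dosing used one drug alone or a fixed anchor-drug dose plus five library-drug doses (not always all listed) in √10 steps, and values are medians of duplicate plates.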

[2] = system: NCI-H1915
Method in brief: as §1

[3] = system: NCI-H1666
Method in brief: as §1

[4] = system: LCLC-97TM1
Method in brief: as §1

[5] = system: NCI-H1792
Method in brief: as §1

[6] = system: NCI-H838
Method in brief: as §1

[7] = system: EKVX
Method in brief: as §1

[8] = system: NCI-H1975
Method in brief: as §1

[9] = system: SK-LU-1
Method in brief: as §1

[10] = system: NCI-H647
Method in brief: as §1

[11] = system: PC-3 [JPC-3]
Method in brief: as §1

[12] = system: NCI-H23
Method in brief: as §1

[13] = system: NCI-H441
Method in brief: as §1

[14] = system: NCI-H460
Method in brief: as §1

[15] = system: NCI-H727
Method in brief: as §1

[16] = system: NCI-H596
Method in brief: as §1

[17] = system: NCI-H1437
Method in brief: as §1

[18] = system: NCI-H358
Method in brief: as §1

[19] = system: NCI-H322M
Method in brief: as §1

[20] = system: NCI-H520
Method in brief: as §1

[21] = system: NCI-H1650
Method in brief: as §1

Work on `Cc1csc(=NC2CCCCC2)n1/N=C/c1ccc(O)c(O)c1O` [MIM1] + C[C@@H](Oc1cc(-c2cnn(C3CCNCC3)c2)cnc1N)c1c(Cl)ccc(F)c1Cl [Crizotinib] (partner 1 µM) yielded a relative viability ([1]; first compound 0.2 µM) of 0.973, a relative viability ([1]; first compound 0.6325 µM) of 0.953 and a relative viability ([1]; first compound 2 µM) of 0.875. The relative viability ([1]; first compound 6.325 µM) was 0.677, the relative viability ([1]; first compound 20 µM) was 0.531 and the relative viability ([2]; first compound 0.2 µM) was 0.887. The relative viability ([2]; first compound 0.6325 µM) was 0.875, the relative viability ([2]; first compound 2 µM) was 0.792 and the relative viability ([2]; first compound 6.325 µM) was 0.648. The relative viability ([2]; first compound 20 µM) was 0.219, the relative viability ([3]; first compound 0.2 µM) was 0.926 and the relative viability ([3]; first compound 0.6325 µM) was 0.92. For the same compound, the relative viability ([3]; first compound 2 µM) was 0.958, the relative viability ([3]; first compound 6.325 µM) was 0.663 and the relative viability ([3]; first compound 20 µM) was 0.238. For the same compound, the relative viability ([4]; first compound 0.2 µM) was 0.327, the relative viability ([4]; first compound 0.6325 µM) was 0.38 and the relative viability ([4]; first compound 2 µM) was 0.441. It also gave a relative viability ([4]; first compound 6.325 µM) of 0.214, a relative viability ([4]; first compound 20 µM) of 0.12 and a relative viability ([5]; first compound 0.2 µM) of 0.935. It also gave a relative viability ([5]; first compound 0.6325 µM) of 0.897, a relative viability ([5]; first compound 2 µM) of 1.02 and a relative viability ([5]; first compound 6.325 µM) of 0.481. It also gave a relative viability ([5]; first compound 20 µM) of 0.902, a relative viability ([6]; first compound 0.2 µM) of 0.818 and a relative viability ([6]; first compound 0.6325 µM) of 0.988. For the same compound, the relative viability ([6]; first compound 2 µM) was 0.554, the relative viability ([6]; first compound 6.325 µM) was 0.688 and the relative viability ([6]; first compound 20 µM) was 0.699. For the same compound, the relative viability ([7]; first compound 0.2 µM) was 0.989, the relative viability ([7]; first compound 0.6325 µM) was 0.887 and the relative viability ([7]; first compound 2 µM) was 0.788. For the same compound, the relative viability ([7]; first compound 6.325 µM) was 0.527, the relative viability ([7]; first compound 20 µM) was 0.757 and the relative viability ([8]; first compound 0.2 µM) was 0.908. It also gave a relative viability ([8]; first compound 0.6325 µM) of 1.1, a relative viability ([8]; first compound 2 µM) of 0.871 and a relative viability ([8]; first compound 6.325 µM) of 0.545. For the same compound, the relative viability ([8]; first compound 20 µM) was 0.482, the relative viability ([9]; first compound 0.2 µM) was 1.02 and the relative viability ([9]; first compound 0.6325 µM) was 0.895. For the same compound, the relative viability ([9]; first compound 2 µM) was 1.07, the relative viability ([9]; first compound 6.325 µM) was 0.815 and the relative viability ([9]; first compound 20 µM) was 0.843. The relative viability ([10]; first compound 0.2 µM) was 1.05, the relative viability ([10]; first compound 0.6325 µM) was 1.17 and the relative viability ([10]; first compound 2 µM) was 1.02. For the same compound, the relative viability ([10]; first compound 6.325 µM) was 0.719, the relative viability ([10]; first compound 20 µM) was 0.354 and the relative viability ([11]; first compound 0.2 µM) was 0.989. The relative viability ([11]; first compound 0.6325 µM) was 1, the relative viability ([11]; first compound 2 µM) was 1 and the relative viability ([11]; first compound 6.325 µM) was 0.768. The relative viability ([11]; first compound 20 µM) was 0.451, the relative viability ([12]; first compound 0.2 µM) was 0.554 and the relative viability ([12]; first compound 2 µM) was 0.334. The relative viability ([12]; first compound 6.325 µM) was 0.487, the relative viability ([12]; first compound 20 µM) was 0.259 and the relative viability ([13]; first compound 0.2 µM) was 0.835. The relative viability ([13]; first compound 0.6325 µM) was 0.692, the relative viability ([13]; first compound 2 µM) was 0.774 and the relative viability ([13]; first compound 6.325 µM) was 0.433. It also gave a relative viability ([13]; first compound 20 µM) of 0.222, a relative viability ([14]; first compound 0.2 µM) of 0.853 and a relative viability ([14]; first compound 0.6325 µM) of 0.994. It also gave a relative viability ([14]; first compound 2 µM) of 0.374, a relative viability ([14]; first compound 6.325 µM) of 0.205 and a relative viability ([14]; first compound 20 µM) of 0.031. The relative viability ([15]; first compound 0.2 µM) was 0.836, the relative viability ([15]; first compound 0.6325 µM) was 0.81 and the relative viability ([15]; first compound 2 µM) was 0.795. The relative viability ([15]; first compound 6.325 µM) was 0.534, the relative viability ([15]; first compound 20 µM) was 0.349 and the relative viability ([16]; first compound 0.2 µM) was 0.965. For the same compound, the relative viability ([16]; first compound 0.6325 µM) was 1.11, the relative viability ([16]; first compound 2 µM) was 0.832 and the relative viability ([16]; first compound 6.325 µM) was 0.921. For the same compound, the relative viability ([16]; first compound 20 µM) was 0.741, the relative viability ([17]; first compound 0.2 µM) was 0.888 and the relative viability ([17]; first compound 0.6325 µM) was 0.839. For the same compound, the relative viability ([17]; first compound 2 µM) was 0.864, the relative viability ([17]; first compound 6.325 µM) was 0.559 and the relative viability ([17]; first compound 20 µM) was 0.631. It also gave a relative viability ([18]; first compound 0.2 µM) of 0.572, a relative viability ([18]; first compound 0.6325 µM) of 0.459 and a relative viability ([18]; first compound 2 µM) of 0.545. For the same compound, the relative viability ([18]; first compound 6.325 µM) was 0.225, the relative viability ([18]; first compound 20 µM) was 0.295 and the relative viability ([19]; first compound 0.2 µM) was 0.831. The relative viability ([19]; first compound 0.6325 µM) was 1.02, the relative viability ([19]; first compound 2 µM) was 0.762 and the relative viability ([19]; first compound 6.325 µM) was 0.808. The relative viability ([19]; first compound 20 µM) was 0.71, the relative viability ([20]; first compound 0.2 µM) was 0.688 and the relative viability ([20]; first compound 0.6325 µM) was 0.787. It also gave a relative viability ([20]; first compound 2 µM) of 0.862, a relative viability ([20]; first compound 6.325 µM) of 0.578 and a relative viability ([20]; first compound 20 µM) of 0.498. For the same compound, the relative viability ([21]; first compound 0.2 µM) was 1.04, the relative viability ([21]; first compound 0.6325 µM) was 0.931 and the relative viability ([21]; first compound 2 µM) was 0.495. For the same compound, the relative viability ([21]; first compound 6.325 µM) was 0.47 and the relative viability ([21]; first compound 20 µM) was 0.156.
